# Assay results reported in the supplement of paper PMC13380429.
# Experiments:
# Details in all cases: 72 h
# [1] = system: Vero E6; assay: drug sensitivity score (DSS) for viability; higher = more toxic; extreme values may be limits of the assay
# [2] = system: U2OS; assay: as above
# [3] = system: Caco-2; assay: as above
# [4] = system: Calu-3; assay: as above
# [5] = system: HepG2; assay: as above
# [6] = system: Vero E6; assay: cell viability relative to DMSO; higher = less toxic
# [7] = system: U2OS; assay: as above
# [8] = system: Caco-2; assay: as above
# [9] = system: Calu-3; assay: as above
# [10] = system: HepG2; assay: as above
# [11] = system: Vero E6; assay: relative viability EC50 (midpoint between 100% and the lowest measured viability); higher = less toxic
# [12] = system: U2OS; assay: as above
# [13] = system: Caco-2; assay: as above
# [14] = system: Calu-3; assay: as above
# [15] = system: HepG2; assay: as above
SMILES,drug sensitivity score [1],drug sensitivity score [2],drug sensitivity score [3],drug sensitivity score [4],drug sensitivity score [5],cell viability ([6]; 1 nM),cell viability ([6]; 10 nM),cell viability ([6]; 100 nM),cell viability ([6]; 1000 nM),cell viability ([6]; 10000 nM),cell viability ([7]; 1 nM),cell viability ([7]; 10 nM),cell viability ([7]; 100 nM),cell viability ([7]; 1000 nM),cell viability ([7]; 10000 nM),cell viability ([8]; 1 nM),cell viability ([8]; 10 nM),cell viability ([8]; 100 nM),cell viability ([8]; 1000 nM),cell viability ([8]; 10000 nM),cell viability ([9]; 1 nM),cell viability ([9]; 10 nM),cell viability ([9]; 100 nM),cell viability ([9]; 1000 nM),cell viability ([9]; 10000 nM),cell viability ([10]; 1 nM),cell viability ([10]; 10 nM),cell viability ([10]; 100 nM),cell viability ([10]; 1000 nM),cell viability ([10]; 10000 nM),relative viability EC50 [11],relative viability EC50 [12],relative viability EC50 [13],relative viability EC50 [14],relative viability EC50 [15]
CC(C)C(=O)Nc1ccc([N+](=O)[O-])c(C(F)(F)F)c1 [flutamide],0,0,0,0,2,106%,89.8%,104%,107%,111%,92%,97.2%,94.3%,100%,93.8%,107%,108%,92.1%,116%,85.7%,101%,96.2%,99.6%,101%,94.9%,94.5%,107%,96.9%,84.2%,90.7%,> 10 µM,> 10 µM,> 10 µM,> 10 µM,> 10 µM
COc1ccc(-c2coc3cc(O)ccc3c2=O)cc1 [formononetin],0,0,0,0,0,102%,101%,99.9%,105%,102%,102%,98%,99.9%,102%,103%,101%,101%,100%,95.6%,94.2%,103%,94.5%,102%,89.8%,93.7%,102%,106%,97.8%,104%,96.7%,> 10 µM,> 10 µM,> 10 µM,> 10 µM,> 10 µM
COc1ccc(CCN(C)CCCC(C#N)(c2cc(OC)c(OC)c(OC)c2)C(C)C)cc1OC (stereo not given) [gallopamil],0,0,0,0,0,101%,97.3%,96.9%,102%,106%,94%,99.7%,96.4%,97.3%,99.3%,91.3%,91.5%,92.1%,91.6%,96%,94.1%,104%,97%,92.2%,104%,96.8%,103%,98.3%,101%,106%,> 10 µM,> 10 µM,> 10 µM,> 10 µM,> 10 µM
OCc1ccc(O[C@@H]2O[C@H](CO)[C@@H](O)[C@H](O)[C@H]2O)cc1 [gastrodin],0,0,0,0,0,95.4%,99.6%,95.1%,92.1%,95.3%,97.7%,99.9%,100%,99.7%,98.1%,106%,95.9%,107%,92%,106%,108%,94.1%,94.2%,110%,104%,99.1%,104%,104%,107%,117%,> 10 µM,> 10 µM,> 10 µM,> 10 µM,> 10 µM
Cc1cc(O)c2c(=O)c3c(O)cc(O)c4c5c(O)cc(O)c6c(=O)c7c(O)cc(C)c8c1c2c(c34)c(c78)c65 [hypericin],0,1.4,0,0.3,0.4,96.3%,91.3%,101%,80.7%,95.7%,102%,94.6%,91.2%,96.2%,77.1%,104%,101%,104%,99.4%,98.3%,106%,101%,94%,110%,79.7%,108%,106%,103%,101%,81.9%,> 10 µM,> 10 µM,> 10 µM,> 10 µM,> 10 µM
CCc1cc2c(cc1CC)CC(NC[C@H](O)c1ccc(O)c3[nH]c(=O)ccc13)C2 [indacaterol],0,0,0,0,0.2,96.8%,94.3%,96.8%,96.3%,94.2%,106%,100%,104%,95.6%,95.4%,89.7%,97%,101%,94.8%,96.4%,112%,94.2%,112%,101%,91.5%,121%,115%,98.4%,115%,81%,> 10 µM,> 10 µM,> 10 µM,> 10 µM,> 10 µM
CC(C)NNC(=O)c1ccncc1 [iproniazid],0,0,0,0,0,100%,95.1%,101%,90.8%,108%,96.6%,98.9%,97.4%,103%,104%,93.6%,95.9%,98.9%,90.8%,103%,93.2%,97.9%,94.6%,107%,99.6%,108%,96.4%,108%,104%,105%,> 10 µM,> 10 µM,> 10 µM,> 10 µM,> 10 µM
